By Ki is commonly meant a measure of affinity in units of concentration, obtained from inhibition or displacement. A low value points to tighter binding.

SMILES strings stand for the structures.

This test deals with Beta-secretase 1 (Homo sapiens, UniProt P56817). The test is described as follows: Inhibition of BACE (unknown origin).
Chain of Beta-secretase 1 (P56817 whole entry): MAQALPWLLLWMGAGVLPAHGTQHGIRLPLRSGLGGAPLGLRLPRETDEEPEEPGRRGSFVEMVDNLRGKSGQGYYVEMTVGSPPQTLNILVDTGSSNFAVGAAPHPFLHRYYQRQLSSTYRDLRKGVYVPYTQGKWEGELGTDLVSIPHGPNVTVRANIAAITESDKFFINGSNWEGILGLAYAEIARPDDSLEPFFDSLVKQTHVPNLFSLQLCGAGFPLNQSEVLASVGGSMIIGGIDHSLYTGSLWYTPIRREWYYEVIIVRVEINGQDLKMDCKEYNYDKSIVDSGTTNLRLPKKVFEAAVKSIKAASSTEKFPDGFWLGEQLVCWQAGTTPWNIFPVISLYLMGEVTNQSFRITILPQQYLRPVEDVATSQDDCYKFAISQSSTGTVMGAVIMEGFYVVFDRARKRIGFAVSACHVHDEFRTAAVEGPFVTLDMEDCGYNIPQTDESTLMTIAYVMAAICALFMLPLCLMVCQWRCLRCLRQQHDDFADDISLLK
`CC(C)C[C@H](NCC(=O)[C@H](CC(N)=O)NC(=O)[C@@H](NC(=O)OC(C)(C)C)C(C)C)[C@@H](O)C[C@@H](C)C(=O)N[C@@H](C(=O)NCc1ccccc1)C(C)C`: the Ki was 5.9 µM.

For `CC(C)C[C@H](NCC(=O)[C@@H](CCS(C)(=O)=O)NC(=O)[C@@H](NC(=O)OC(C)(C)C)C(C)C)[C@@H](O)C[C@@H](C)C(=O)N[C@@H](C(=O)NCc1ccccc1)C(C)C`, the Ki was 8 µM. The Ki values of the last two compounds are within 1.5-fold of each other.

`CC(C)C[C@H](NCC(=O)[C@H](CS(C)(=O)=O)NC(=O)OC(C)(C)C)[C@@H](O)C[C@@H](C)C(=O)N[C@H](C(=O)NCc1ccccc1)C(C)C`: the affinity, expressed as Ki, was 1.13 µM.

On to `CSCC[C@@H](NC(=O)[C@@H](NC(=O)OC(C)(C)C)C(C)C)C(=O)CN[C@@H](CC(C)C)[C@@H](O)C[C@@H](C)C(=O)NC(C(=O)NCc1ccccc1)C(C)C` (single isomer, unassigned), for which the inhibition constant (Ki) is 2.5 µM.

In turn, `CC(C)C[C@H](NCC(=O)[C@H](CC(N)=O)NC(=O)OC(C)(C)C)[C@@H](O)C[C@@H](C)C(=O)N[C@@H](C)C(=O)NCc1ccccc1` gave a Ki of 22.4 µM. This Ki lies about 9-fold higher than the previous one.

Take `CC(C)C[C@H](NCC(=O)[C@H](CC(N)=O)NC(=O)[C@@H](NC(=O)OC(C)(C)C)C(C)C)[C@@H](O)C[C@@H](C)C(=O)N[C@@H](C)C(=O)NCc1ccccc1`: the affinity, expressed as Ki, was 61.4 µM.

As to `CC(C)C[C@H](NCC(=O)[C@H](CS(C)(=O)=O)NC(=O)[C@@H](NC(=O)OC(C)(C)C)C(C)C)[C@@H](O)C[C@@H](C)C(=O)N[C@@H](C(=O)NCc1ccccc1)C(C)C`, the affinity, expressed as Ki, was 9.4 µM.

As for `CC(C)C[C@H](NCC(=O)[C@H](CC(N)=O)NC(=O)OC(C)(C)C)[C@@H](O)C[C@@H](C)C(=O)N[C@H](C(=O)NCc1ccccc1)C(C)C`, the inhibitory constant (Ki) is 3.13 µM.

`CSCC[C@@H](NC(=O)[C@@H](NC(=O)OC(C)(C)C)C(C)C)C(=O)CN[C@@H](CC(C)C)[C@@H](O)C[C@@H](CC(C)C)C(=O)N[C@@H](C(=O)NCc1ccccc1)C(C)C` showed a Ki of 10.5 µM.

`CSCC[C@@H](NC(=O)OC(C)(C)C)C(=O)CN[C@@H](CC(C)C)[C@@H](O)C[C@@H](C)C(=O)N[C@H](C(=O)NCc1ccccc1)C(C)C` showed a Ki of 5.81 µM.

`CSC[C@@H](NC(=O)[C@@H](NC(=O)OC(C)(C)C)C(C)C)C(=O)CN[C@@H](CC(C)C)[C@@H](O)C[C@@H](C)C(=O)N[C@H](C(=O)NCc1ccccc1)C(C)C` showed an inhibition constant (Ki) of 50.1 µM. Compared with the last compound, the Ki is about 8.6-fold higher.

Source of the values: ChEMBL document CHEMBL3045025, “Exploring structural requirement and binding interactions of -amyloid cleavage enzyme inhibitors using molecular modeling techniques” (Med Chem Res, 2013).
